According to PMC8876931, “Pharmacokinetic, Metabolomic, and Stability Assessment of Ganoderic Acid H Based Triterpenoid Enriched Fraction of Ganoderma lucidum P. Karst” (Metabolites, 2022):

Columns and labels:
[1] = In vivo pattern recognition of TEF: UPLC–MS metabolic profiling of blood after oral administration; parameters: species or system rats; conditions: for bioavailability (absorbed in systemic circulation) of TEF constituent: after oral administration of TEF to rats, in words; for Metabolites Pattern in TEF and Blood (Abundance): UPLC–MS abundance of mass
Description: For in vivo pattern recognition of TEF, it was orally administered to rats. After its oral administration, blood samples were collected at different time intervals. Prepared plasma samples of pharmacokinetic analysis (0.5, 1, 3, 6, 12, 24, 48, and 72 h) were used for this study. Samples were analyzed by ultra-performance liquid chromatography–mass spectrometry (UPLC–MS) analysis. The UPLC–MS was performed on Water’s ACQUITY UPLCTM system (Waters Corp., Milford, MA, USA) equipped with a binary solvent delivery system, an autosampler, column manager, and a tunable MS detector (Synapt; Waters, Manchester, UK). Chromatographic separation was performed on a Water’s ACQUITY UPLC^TM BEH C18 (100.0 × 2.1 mm × 1.7 μm) column. The mobile phase used for chromatographic separation was 0.05% (v/v) formic acid in water (A) and 0.05% (v/v) formic acid in acetonitrile (B). […] The flow rate of mobile phase was 0.5 mL/min, and column temperature was set at 25 °C throughout the run time. The mass spectrometry was performed on a quadrupole orthogonal acceleration time of flight tandem mass spectrometer (Waters Q-TOF, Manchester, UK). The nebulizer gas was set to 500 L/h, the cone gas was set to 50 L/h, and the source temperature was set to 100 °C. The capillary voltage was set to 3.0 kV, and the sample cone voltage was set to […]. Argon was employed as the collision gas at a pressure of 5.3 × 10^−5 Torr. The Q-TOF was operated in positive mode with […] and 0.02 s inter-scan delay. The accurate mass and composition for the precursor ions and the fragment ions were calculated by using MassLynx v 4.1 software incorporated with the instrument. Compounds were tentatively identified from database by comparing their reported m/z values with experimental values. Focus was given to the mass ranges from 130 to 600 m/z for lanosterol type triterpenoids and general terpene hydrocarbon. The databases used for identification of compounds were MassBank and HMDB.
Metabolomic comparison was performed with respect to analysis of TEF. For that, dried TEF was dissolved in LC–MS grade methanol and analyzed with same conditions used for plasma sample analysis. […] This metabolomic analysis was based on metabolites absorbed in blood after oral administration.

breast cancer cells = tested on: breast cancer cells; parameters: method as in PMID 18425349; conditions: by modulating AP-1 and NF-κB signaling; cited from earlier work
[2] = Pharmacokinetic analysis of TEF in terms of GA-H after oral administration to rats (HPLC of plasma and urine); format: in vivo, Albino Wistar rats; parameters: rate of elimination (Kel): unit not given here
Description: Alliance HPLC system (e2695 Separation module, Waters, Milford, MA, USA) with a gradient pump integrated with adjustable wavelength programmable photodiode array detector (PDA) was employed for analysis. Chromatographic separation was executed on Hupersil […] C18 (ODS) column (150 × 4.6 mm, Phenomenex, Torrance, CA, USA), using mobile phase composed of 0.5% v/v formic acid in water (A) and methanol (B). Solvents were eluted at a flow rate of 1.0 mL/min in gradient elution program (initially 100% A, 0–5 min 90% A, 5–10 min 70% A, 10–15 min 30% A, 15–20 min 2% A, and 20–22 min 100% A). Detection was carried out in a scanning mode with 3D channel at a wavelength of 254 nm. Total run time was 25 min. The identity of the compounds was established by comparing retention time of analytical standards. The proposed developed method was further validated as per the AOAC guidelines.
Albino Wistar rats (8 weeks old, 180 ± 20 g) were obtained from the Central Animal House Facility of Jamia Hamdard. Animal housing and handling were executed in accordance with the Good Laboratory Practice (GLP) mentioned in CPCSEA guidelines. All experimental protocols were reviewed and approved by the Institutional Animal Ethics Committee (Registration No 173/GO/RE/S/2000/CPCSEA; approval number 1472). All animals were housed in polypropylene cages (not more than three animals per cage) with proper water and feed and were allowed to acclimatize with specified conditions (25 ± 3 °C and 60 ± 5%RH) for a week before the experiment. […] After oral administration, blood samples were collected from retro-orbital plexus by using heparinized capillaries at 0 (pre-dose), 0.5, 1, 1.5, 2, 4, 6, 8, 10, 12, 16, 24, and 30 h. Blood samples were collected in EDTA tubes and centrifuged at 7000 rpm to get plasma. The separated plasma was stored at −60 °C until analysis. […] The collected urine from each animal was pooled for analysis.
Liquid–liquid extraction was used for extraction of GA-H from plasma. In 100 µL of plasma, 500 µL of ice-cold methanol was added, vortexed, and incubated at −60 °C for 8 h. After incubation, it was brought to room temperature and centrifuged at 10,000 rpm for 10 min. The supernatant was separated and dried by passing […]. The dried extract was re-suspended with 100 μL of LC–MS grade methanol, sonicated for 10 min, centrifuged at 14,000 rpm for 10 min, supernatant separated, and then transferred into sample vials having insert for analysis. Similar sample preparation protocol and storage conditions were used for urine through liquid–liquid extraction.
The maximum plasma concentration (Cmax) and time to attain maximum concentration (Tmax) were directly assessed by plasma concentration–time graph. Other pharmacokinetic parameters, such as AUC, AUC0–t, AUC0–∞, half-life (t1/2), elimination rate constant (Kel), and volume of distribution (Vd), were calculated from plasma concentration vs. time profile response curve by non-compartmental analysis, using software Pkf Excel plug-in program.

[3] = blood 0.5 h after oral TEF to rats
[4] = blood 1 h after oral TEF to rats
[5] = blood 3 h after oral TEF to rats
[6] = blood 6 h after oral TEF to rats
[7] = blood 12 h after oral TEF to rats
[8] = blood 24 h after oral TEF to rats
[9] = blood 48 h after oral TEF to rats
[10] = blood 72 h after oral TEF to rats
[11] = Albino Wistar, rat, plasma, po, 85 mg/kg
[12] = GA-H in rat plasma after oral TEF 85 mg/Kg
[13] = GA-H, rats, oral TEF 85 mg/Kg, non-compartmental analysis

Row | SMILES | bioavailability (absorbed in systemic circulation) of TEF constituent [1] | Metabolites Pattern in TEF and Blood (Abundance) [1, 4] | Metabolites Pattern in TEF and Blood (Abundance) [1, 5] | Metabolites Pattern in TEF and Blood (Abundance) [1, 6] | Metabolites Pattern in TEF and Blood (Abundance) [1, 7] | Metabolites Pattern in TEF and Blood (Abundance) [1, 8] | Metabolites Pattern in TEF and Blood (Abundance) [1, 9] | Metabolites Pattern in TEF and Blood (Abundance) [1, 10] | effect on growth and invasive behavior of breast cancer cells (breast cancer cells) | also measured
1 | OC[C@H]1OC(c2c(O)cc3c(c2O)C[C@@H](O)[C@@H](c2ccc(O)c(O)c2)O3)[C@H](O)[C@@H](O)[C@@H]1O (some centres unmarked) [Epicatechin-6-glucoside] | bioavailable | 36,783 | 25,056 | 26,578 | 22,346 | 21,324 | 24,569 | 22,345 |  | Metabolites Pattern in TEF and Blood (Abundance) [1, 3]: 19,876
2 | CC(=O)O[C@@H]1C(=O)C2=C(C(=O)C[C@H]3C(C)(C)C(=O)CC[C@]23C)[C@]2(C)C(=O)C[C@H]([C@H](C)CC(=O)CC(C)C(=O)O)[C@@]12C (some centres unmarked) [GA-F, ganoderic acid F] |  |  |  |  |  |  |  |  | suppress the growth and invasive behavior | 
3 | NC(=O)CC[C@H](N=C/C=C1/C=C(C(=O)O)N[C@H](C(=O)O)C1)C(=O)O [Glutamine-betaxanthin] | absorbed in the systemic circulation |  |  |  |  |  |  |  |  | 
4 | CC(=O)O[C@@H]1C(=O)C2=C(C(=O)C[C@H]3C(C)(C)[C@@H](O)CC[C@]23C)[C@]2(C)C(=O)C[C@H]([C@H](C)CC(=O)CC(C)C(=O)O)[C@@]12C (some centres unmarked) [GA-H, ganoderic acid H] |  | 45,675 | 54,675 | 32,456 | 24,978 |  |  |  | suppress the growth and invasive behavior | Metabolites Pattern in TEF and Blood (Abundance) [1, 3]: 35,876; AUC(0-inf) [2, 11]: 9840 ± 157 ng·h/mL; AUC(0-t) [2, 11]: 9800 ± 170 ng·h/mL; half-life ([2]; Albino Wistar, rat, plasma, po, 85 mg/kg, read-out: half-life in blood (converted)): 13.2 h; Cmax ([2]; Albino Wistar, rat, plasma, po, 85 mg/kg, read-out: maximum plasma concentration (Cmax)): 2510 ng/mL; MRT ([2]; Albino Wistar, rat, plasma, po, 85 mg/kg, read-out: mean residence time in blood): 5.42 h; relative exposure AUC0–∞/D [2, 12]: 1968.9 ± 32.5 ng·h/mL/mg; relative exposure Cmax/D [2, 12]: 501.9 ± 25.4 ng/mL/mg; time to peak plasma concentration (Tmax) [2, 12]: approximately one; time up to which a quantifiable amount was sustained in plasma ([2]; GA-H, rats, oral TEF): up to 12 h; rate of elimination (Kel) ([2]; GA-H, rats, oral TEF 85 mg/Kg): 0.05; clearance (CL) [2, 13]: 507.9 ± 25.6 mL/h; volume of distribution (Vd) [2, 13]: 9660.3 ± 111.5 mL; detection in urine ([2]; rat urine collected at 4, 12 and 24 h after oral TEF, pooled): no GA-H was detected
5 | CC(C)CCCCCCCCCCCC(=O)O [13-methylmyristic acid] | bioavailable |  | 23,412 | 25,473 | 21,675 | 16,734 | 9835 | 5642 |  | 
6 | C[C@H](CC(=O)C[C@@H](C)[C@H]1C[C@H](O)[C@@]2(C)C3=C(C(=O)C[C@]12C)[C@@]1(C)CCC(=O)C(C)(C)[C@@H]1C[C@@H]3O)C(=O)O [Ganoderic acid A] | bioavailable | 45,647 | 37,652 | 29,143 | 22,987 | 21,548 |  |  | suppress the growth and invasive behavior | 
7 | CCCCC/C=C\C/C=C\CCCCCCCC(=O)O [Linoleic acid] | bioavailable |  | 23,451 | 21,543 | 18,756 | 12,112 | 8453 | 5641 |  | 
8 | CC(CC(=O)C[C@@H](C)[C@H]1CC(=O)[C@@]2(C)C3=C(C(=O)C[C@]12C)[C@@]1(C)CCC(=O)C(C)(C)[C@@H]1C[C@@H]3O)C(=O)O (some centres unmarked) [Ganoderic acid D] |  | 36,786 | 37,654 | 27,689 | 26,657 | 21,234 |  |  |  | 
